PubChem BioAssay (NCI)
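96-well plates; 48 h exposure; 5 concentrations. Endpoints by linear interpolation between flanking doses. Not reached: highest tested concentration assigned. GI50 marks 50% less growth. Definition used: TGI = concentration required for complete inhibition of growth.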

Columns and labels:
Test in all cases: inhibition of tumour cell growth, NCI panel, 48 h; in the data active means GI50 below about 0.43 µM; inactive means the rest
KM12 colon = system: KM12 colon
UACC-62 melanoma = system: UACC-62 melanoma
LOX IMVI melanoma = system: LOX IMVI melanoma
SN12C renal = system: SN12C renal
RXF 393 renal = system: RXF 393 renal
CCRF-CEM leukemia = system: CCRF-CEM leukemia
COLO 205 colon = system: COLO 205 colon
HOP-62 NSCLC = system: HOP-62 NSCLC
OVCAR-3 ovarian = system: OVCAR-3 ovarian
NCI-H522 lung = system: NCI-H522 lung
PC-3 prostate = system: PC-3 prostate
TK-10 renal = system: TK-10 renal
SR leukemia = system: SR leukemia
MOLT-4 leukemia = system: MOLT-4 leukemia
SNB-75 CNS = system: SNB-75 CNS
NCI-H23 lung = system: NCI-H23 lung
OVCAR-5 ovarian = system: OVCAR-5 ovarian
UACC-257 melanoma = system: UACC-257 melanoma
HL-60(TB) leukemia = system: HL-60(TB) leukemia
SW-620 colon = system: SW-620 colon
OVCAR-8 ovarian = system: OVCAR-8 ovarian
HCT-116 colon = system: HCT-116 colon
NCI/ADR-RES ovarian = system: NCI/ADR-RES ovarian
UO-31 renal = system: UO-31 renal
MALME-3M melanoma = system: MALME-3M melanoma
EKVX NSCLC = system: EKVX NSCLC
SK-MEL-5 melanoma = system: SK-MEL-5 melanoma
T-47D breast = system: T-47D breast
SF-539 CNS = system: SF-539 CNS
MCF7 breast = system: MCF7 breast
HT29 colon = system: HT29 colon
SK-OV-3 ovarian = system: SK-OV-3 ovarian
786-0 renal = system: 786-0 renal
SF-268 CNS = system: SF-268 CNS
IGROV1 ovarian = system: IGROV1 ovarian
HS 578T breast = system: HS 578T breast
HCT-15 colon = system: HCT-15 colon
HOP-92 NSCLC = system: HOP-92 NSCLC
ACHN renal = system: ACHN renal
SK-MEL-2 melanoma = system: SK-MEL-2 melanoma
K-562 leukemia = system: K-562 leukemia
BT-549 breast = system: BT-549 breast
M14 melanoma = system: M14 melanoma
MDA-MB-231 breast = system: MDA-MB-231 breast
OVCAR-4 ovarian = system: OVCAR-4 ovarian
HCC-2998 colon = system: HCC-2998 colon
CAKI-1 renal = system: CAKI-1 renal
A549 NSCLC = system: A549 NSCLC
U251 CNS = system: U251 CNS
NCI-H226 lung = system: NCI-H226 lung
SF-295 CNS = system: SF-295 CNS
RPMI-8226 leukemia = system: RPMI-8226 leukemia
NCI-H460 lung = system: NCI-H460 lung
MDA-MB-435 = system: MDA-MB-435
SNB-19 CNS = system: SNB-19 CNS
DU-145 prostate = system: DU-145 prostate
SK-MEL-28 melanoma = system: SK-MEL-28 melanoma
A498 renal = system: A498 renal

S=C(Nc1ccc(-c2nc3ccccc3s2)cc1)Nc1ccc(-c2nc3ccccc3s2)cc1
52 µM: TGI (NCI/ADR-RES ovarian)
41.7 µM: TGI (IGROV1 ovarian)
30.5 µM: TGI (LOX IMVI melanoma)
31.2 µM: TGI (HCC-2998 colon)
78.5 µM: TGI (A549 NSCLC)
87.6 µM: TGI (K-562 leukemia)
54.8 µM: TGI (SK-MEL-28 melanoma)
50.4 µM: TGI (RXF 393 renal)
34 µM: TGI (UO-31 renal)
46.1 µM: TGI (M14 melanoma)
38.8 µM: TGI (NCI-H226 lung)
40.1 µM: TGI (BT-549 breast)
44.5 µM: TGI (SN12C renal)
44.9 µM: TGI (NCI-H23 lung)
67.3 µM: TGI (SW-620 colon)
59 µM: TGI (MCF7 breast)
49.4 µM: TGI (OVCAR-8 ovarian)
32 µM: TGI (UACC-62 melanoma)
48 µM: TGI (UACC-257 melanoma)
48.1 µM: TGI (CAKI-1 renal)
94.8 µM: TGI (SF-268 CNS)
35 µM: TGI (MDA-MB-231 breast)
41.6 µM: TGI (U251 CNS)
47.4 µM: TGI (HS 578T breast)
73 µM: TGI (MDA-MB-435)
36.4 µM: TGI (SNB-75 CNS)
42.4 µM: TGI (SF-539 CNS)
48.8 µM: TGI (OVCAR-5 ovarian)
33.9 µM: TGI (HCT-116 colon)
63.9 µM: TGI (NCI-H460 lung)
62.5 µM: TGI (DU-145 prostate)
63.2 µM: TGI (TK-10 renal)
53.6 µM: TGI (HOP-92 NSCLC)
26.6 µM: TGI (SK-MEL-5 melanoma)
99.4 µM: TGI (OVCAR-4 ovarian)
35.7 µM: TGI (HCT-15 colon)
83.2 µM: TGI (786-0 renal)
> 100 µM: TGI (KM12 colon) | TGI (COLO 205 colon) | TGI (HOP-62 NSCLC) | TGI (OVCAR-3 ovarian) | TGI (PC-3 prostate) | TGI (MOLT-4 leukemia) | TGI (HL-60(TB) leukemia) | TGI (T-47D breast) | TGI (SK-OV-3 ovarian) | TGI (SF-295 CNS) | TGI (RPMI-8226 leukemia) | TGI (SNB-19 CNS)
inactive: GI50 (KM12 colon) 20.1 µM | GI50 (UACC-62 melanoma) 15.7 µM | GI50 (LOX IMVI melanoma) 15.2 µM | GI50 (SN12C renal) 16.7 µM | GI50 (RXF 393 renal) 15.9 µM | GI50 (CCRF-CEM leukemia) 18.4 µM | GI50 (COLO 205 colon) 27.4 µM | GI50 (HOP-62 NSCLC) 37.5 µM | GI50 (OVCAR-3 ovarian) 24.5 µM | GI50 (NCI-H522 lung) 11.2 µM | GI50 (PC-3 prostate) 26.8 µM | GI50 (TK-10 renal) 18.3 µM | GI50 (SR leukemia) 21 µM | GI50 (MOLT-4 leukemia) 10.2 µM | GI50 (SNB-75 CNS) 10.4 µM | GI50 (NCI-H23 lung) 21.1 µM | GI50 (OVCAR-5 ovarian) 20.1 µM | GI50 (UACC-257 melanoma) 24.5 µM | GI50 (HL-60(TB) leukemia) 35.7 µM | GI50 (SW-620 colon) 23.7 µM | GI50 (OVCAR-8 ovarian) 19.9 µM | GI50 (HCT-116 colon) 16.6 µM | GI50 (NCI/ADR-RES ovarian) 22.5 µM | GI50 (UO-31 renal) 12.4 µM | GI50 (MALME-3M melanoma) 20 µM | GI50 (EKVX NSCLC) 8.79 µM | GI50 (SK-MEL-5 melanoma) 13.5 µM | GI50 (T-47D breast) 18.8 µM | GI50 (SF-539 CNS) 16.6 µM | GI50 (MCF7 breast) 25 µM | GI50 (HT29 colon) 20.7 µM | GI50 (SK-OV-3 ovarian) 58.8 µM | GI50 (786-0 renal) 28 µM | GI50 (SF-268 CNS) 23.6 µM | GI50 (IGROV1 ovarian) 13 µM | GI50 (HS 578T breast) 17.8 µM | GI50 (HCT-15 colon) 15.4 µM | GI50 (HOP-92 NSCLC) 15.3 µM | GI50 (ACHN renal) 17.1 µM | GI50 (SK-MEL-2 melanoma) 22.9 µM | GI50 (K-562 leukemia) 26.4 µM | GI50 (BT-549 breast) 9.36 µM | GI50 (M14 melanoma) 21.6 µM | GI50 (MDA-MB-231 breast) 13.7 µM | GI50 (OVCAR-4 ovarian) 24.4 µM | GI50 (HCC-2998 colon) 17.4 µM | GI50 (CAKI-1 renal) 13.5 µM | GI50 (A549 NSCLC) 22.4 µM | GI50 (U251 CNS) 17.2 µM | GI50 (NCI-H226 lung) 14 µM | GI50 (SF-295 CNS) 17.6 µM | GI50 (RPMI-8226 leukemia) 34.6 µM | GI50 (NCI-H460 lung) 21 µM | GI50 (MDA-MB-435) 24.8 µM | GI50 (SNB-19 CNS) 43 µM | GI50 (DU-145 prostate) 19.1 µM | GI50 (SK-MEL-28 melanoma) 22.3 µM
49.5 µM: TGI (SR leukemia)
30.2 µM: TGI (EKVX NSCLC)
26.2 µM: TGI (NCI-H522 lung)
70.6 µM: TGI (CCRF-CEM leukemia)
41 µM: TGI (ACHN renal)
55.9 µM: TGI (HT29 colon)
45 µM: TGI (SK-MEL-2 melanoma)
65.4 µM: TGI (MALME-3M melanoma)

COC(=O)N[C@@H](C)CNc1nccc(-c2cn(C(C)C)nc2-c2cc(Cl)cc(NS(C)(=O)=O)c2F)n1
inactive: GI50 (KM12 colon) 70.1 µM | GI50 (SN12C renal) > 100 µM | GI50 (RXF 393 renal) 0.623 µM | GI50 (CCRF-CEM leukemia) 38.2 µM | GI50 (HOP-62 NSCLC) > 100 µM | GI50 (OVCAR-3 ovarian) 62.8 µM | GI50 (NCI-H522 lung) > 55.2 µM | GI50 (PC-3 prostate) > 100 µM | GI50 (TK-10 renal) > 100 µM | GI50 (SR leukemia) 25.6 µM | GI50 (MOLT-4 leukemia) 50.9 µM | GI50 (SNB-75 CNS) 0.51 µM | GI50 (NCI-H23 lung) > 51.3 µM | GI50 (OVCAR-5 ovarian) > 39.2 µM | GI50 (HL-60(TB) leukemia) 0.741 µM | GI50 (SW-620 colon) 12.1 µM | GI50 (OVCAR-8 ovarian) > 100 µM | GI50 (HCT-116 colon) 0.662 µM | GI50 (NCI/ADR-RES ovarian) > 100 µM | GI50 (UO-31 renal) 4.57 µM | GI50 (SK-MEL-5 melanoma) > 100 µM | GI50 (T-47D breast) > 100 µM | GI50 (SF-539 CNS) 62.6 µM | GI50 (MCF7 breast) 98.5 µM | GI50 (786-0 renal) 14.2 µM | GI50 (SF-268 CNS) > 100 µM | GI50 (IGROV1 ovarian) 0.678 µM | GI50 (HS 578T breast) 0.599 µM | GI50 (HCT-15 colon) 7.46 µM | GI50 (ACHN renal) 1.03 µM | GI50 (K-562 leukemia) 33.6 µM | GI50 (BT-549 breast) > 100 µM | GI50 (MDA-MB-231 breast) 5.72 µM | GI50 (OVCAR-4 ovarian) > 100 µM | GI50 (HCC-2998 colon) 30.9 µM | GI50 (CAKI-1 renal) 4.95 µM | GI50 (A549 NSCLC) 48.2 µM | GI50 (U251 CNS) 59.5 µM | GI50 (NCI-H226 lung) > 100 µM | GI50 (SF-295 CNS) 55.7 µM | GI50 (RPMI-8226 leukemia) > 70 µM | GI50 (SNB-19 CNS) > 100 µM | GI50 (DU-145 prostate) > 93 µM
> 57.9 µM: TGI (HL-60(TB) leukemia)
23.3 µM: TGI (RXF 393 renal)
> 100 µM: TGI (A498 renal) | TGI (KM12 colon) | TGI (LOX IMVI melanoma) | TGI (SN12C renal) | TGI (CCRF-CEM leukemia) | TGI (COLO 205 colon) | TGI (HOP-62 NSCLC) | TGI (OVCAR-3 ovarian) | TGI (NCI-H522 lung) | TGI (PC-3 prostate) | TGI (TK-10 renal) | TGI (MOLT-4 leukemia) | TGI (SNB-75 CNS) | TGI (NCI-H23 lung) | TGI (OVCAR-5 ovarian) | TGI (SW-620 colon) | TGI (OVCAR-8 ovarian) | TGI (HCT-116 colon) | TGI (NCI/ADR-RES ovarian) | TGI (UO-31 renal) | TGI (SK-MEL-5 melanoma) | TGI (T-47D breast) | TGI (SF-539 CNS) | TGI (MCF7 breast) | TGI (HT29 colon) | TGI (SK-OV-3 ovarian) | TGI (786-0 renal) | TGI (SF-268 CNS) | TGI (IGROV1 ovarian) | TGI (HS 578T breast) | TGI (HCT-15 colon) | TGI (ACHN renal) | TGI (K-562 leukemia) | TGI (BT-549 breast) | TGI (MDA-MB-231 breast) | TGI (OVCAR-4 ovarian) | TGI (HCC-2998 colon) | TGI (CAKI-1 renal) | TGI (A549 NSCLC) | TGI (U251 CNS) | TGI (NCI-H226 lung) | TGI (SF-295 CNS) | TGI (RPMI-8226 leukemia) | TGI (MDA-MB-435) | TGI (SNB-19 CNS) | TGI (DU-145 prostate)
active: GI50 (A498 renal) 0.336 µM | GI50 (LOX IMVI melanoma) 0.268 µM | GI50 (COLO 205 colon) < 0.01 µM | GI50 (HT29 colon) < 0.01 µM | GI50 (SK-OV-3 ovarian) 0.363 µM | GI50 (M14 melanoma) < 0.01 µM | GI50 (MDA-MB-435) < 0.01 µM
> 84.7 µM: TGI (SR leukemia)
